Data reported in patent US20240002391A1, “4-ALKOXYPYRROLO[2,1-F][1,2,4]TRIAZINES AND PREPARATION AND USES THEREOF” (BioSplice Therapeutics, Inc., priority 2022, published 2024).

Biological target: recombinant DYRK1A kinase (Homo sapiens (Human), UniProt Q13627)
Assay: DYRK1A kinase assay (Ser/Thr 18 peptide Z-lyte FRET)
Type: biochemical
Settings: DYRK1A kinase activity, Z-lyte Ser/Thr 18 peptide, 15 μM ATP; method text calls the value IC50; read-out: EC50 (the source's name)
Outline: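 Z-lyte FRET: recombinant DYRK1A 0.25 μg/mL, ATP 15 μM, Ser/Thr 18 peptide 4 μM, with compound (11-point 1:3, 10 μM top) 1 h at room temperature, then development reagent 1 h. Coumarin/fluorescein emission ratio converted to % phosphorylation; IC50 by non-linear regression, duplicates.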

Row | Structure (SMILES) | IC50 [nM]
1 | CNC(=O)c1cnn2ccc(-c3ccn4nc(N[C@H]5CC[C@](C)(O)CC5)nc(OC)c34)cc12 [Compound 401, 5-(2-(((1r,4r)-4-Hydroxy-4-methylcyclohexyl)amino)-4-methoxypyrrolo[2,1-f][1,2,4]triazin-5-yl)-N-methylpyrazolo[1,5-a]pyridine-3-carboxamide] | 2.7
2 | CC[C@]1(O)CC[C@H](Nc2nc(OC)c3c(-c4cc(F)c5nccn5c4)ccn3n2)CC1 [Compound 433, (1r,4r)-1-Ethyl-4-((5-(8-fluoroimidazo[1,2-a]pyridin-6-yl)-4-methoxypyrrolo[2,1-f][1,2,4]triazin-2-yl)amino)cyclohexan-1-ol] | 2.6
3 | COc1nc(N[C@@H]2CCN(C)CC2(F)F)nn2ccc(-c3cc(F)c4nccn4c3)c12 [Compound 434, (R)—N-(3,3-Difluoro-1-methylpiperidin-4-yl)-5-(8-fluoroimidazo[1,2-a]pyridin-6-yl)-4-methoxypyrrolo[2,1-f][1,2,4]triazin-2-amine] | 4.9
4 | COc1nc(N[C@@H]2CCN(C3COC3)CC2(F)F)nn2ccc(-c3cc(F)c4nccn4c3)c12 [Compound 435, (R)—N-(3,3-Difluoro-1-(oxetan-3-yl)piperidin-4-yl)-5-(8-fluoroimidazo[1,2-a]pyridin-6-yl)-4-methoxypyrrolo[2,1-f][1,2,4]triazin-2-amine] | 8.9
5 | CNC(=O)c1cnc2ccc(-c3ccn4nc(N[C@H]5CC[C@](C)(O)CC5)nc(OC)c34)cn12 [Compound 441, 6-(2-(((1r,4r)-4-Hydroxy-4-methylcyclohexyl)amino)-4-methoxypyrrolo[2,1-f][1,2,4]triazin-5-yl)-N-methylimidazo[1,2-a]pyridine-3-carboxamide] | 1.1
6 | COc1nc(N[C@H]2C[C@](C)(C(=O)NC3CC(F)(F)C3)C2)nn2ccc(-c3ccc4nc(C)n(CC(F)F)c4c3)c12 [Compound 504, trans-N-(3,3-Difluorocyclobutyl)-3-((5-(1-(2,2-difluoroethyl)-2-methyl-1H-benzo[d]imidazol-6-yl)-4-methoxypyrrolo[2,1-f][1,2,4]triazin-2-yl)amino)-1-methylcyclobutane-1-carboxamide] | 1.4
7 | Cc1nc2ccc(-c3ccn4nc(N[C@H]5CC[C@](C)(O)CC5)nc(OC5COC5)c34)cc2n1CC(F)F [Compound 508, (1r,4r)-4-((5-(1-(2,2-Difluoroethyl)-2-methyl-1H-benzo[d]imidazol-6-yl)-4-(oxetan-3-yloxy)pyrrolo[2,1-f][1,2,4]triazin-2-yl)amino)-1-methylcyclohexan-1-ol] | 24.3
8 | COc1nc(N[C@H]2C[C@@](C)(O)C2)nn2ccc(-c3cc(F)c4nc(C)n(CC(F)F)c4c3)c12 [Compound 509, cis-3-((5-(1-(2,2-Difluoroethyl)-4-fluoro-2-methyl-1H-benzo[d]imidazol-6-yl)-4-methoxypyrrolo[2,1-f][1,2,4]triazin-2-yl)amino)-1-methylcyclobutan-1-ol] | 1.4
9 | COc1nc(N[C@@H]2CN(C(C)=O)C[C@@H]2F)nn2ccc(-c3cc(F)c4nc(C)n(CC(F)F)c4c3)c12 [Compound 513, 1-((3R,4S)-3-((5-(1-(2,2-Difluoroethyl)-4-fluoro-2-methyl-1H-benzo[d]imidazol-6-yl)-4-methoxypyrrolo[2,1-f][1,2,4]triazin-2-yl)amino)-4-fluoropyrrolidin-1-yl)ethan-1-one] | 2.8
10 | COc1nc(N[C@H]2CCN(CCO)C[C@H]2F)nn2ccc(-c3cc(F)c4nc(C)n(CC(F)F)c4c3)c12 [Compound 519, 2-((3R,4S)-4-((5-(1-(2,2-Difluoroethyl)-4-fluoro-2-methyl-1H-benzo[d]imidazol-6-yl)-4-methoxypyrrolo[2,1-f][1,2,4]triazin-2-yl)amino)-3-fluoropiperidin-1-yl)ethan-1-ol] | 2.7
11 | COc1nc(N[C@@H]2CCN(C(C)=O)C[C@@H]2F)nn2ccc(-c3cc(F)c4nc(C)n(CC(F)F)c4c3)c12 [Compound 520, 1-((3S,4R)-4-((5-(1-(2,2-Difluoroethyl)-4-fluoro-2-methyl-1H-benzo[d]imidazol-6-yl)-4-methoxypyrrolo[2,1-f][1,2,4]triazin-2-yl)amino)-3-fluoropiperidin-1-yl)ethan-1-one] | 3
12 | COc1nc(N[C@H]2CCN(C(C)=O)C[C@H]2F)nn2ccc(-c3cc(F)c4nc(C)n(CC(F)F)c4c3)c12 [Compound 521, 1-((3R,4S)-4-((5-(1-(2,2-Difluoroethyl)-4-fluoro-2-methyl-1H-benzo[d]imidazol-6-yl)-4-methoxypyrrolo[2,1-f][1,2,4]triazin-2-yl)amino)-3-fluoropiperidin-1-yl)ethan-1-one] | 2.6
13 | COc1nc(N[C@@H]2CCN(CCO)CC2(F)F)nn2ccc(-c3cc(F)c4nc(C)n(C(C)C)c4c3)c12 [Compound 549, (R)-2-(3,3-Difluoro-4-((5-(4-fluoro-1-isopropyl-2-methyl-1H-benzo[d]imidazol-6-yl)-4-methoxypyrrolo[2,1-f][1,2,4]triazin-2-yl)amino)piperidin-1-yl)ethan-1-ol] | 2.6

The next lines start with the values.

Row | IC50 [nM] | Structure (SMILES)
14 | 3.5 | CNC(=O)c1cnn2ccc(-c3ccn4nc(N[C@H]5CC[C@@H](OC)CC5)nc(OC)c34)cc12 [Compound 399, 5-(4-Methoxy-2-((cis-4-methoxycyclohexyl)amino)pyrrolo[2,1-f][1,2,4]triazin-5-yl)-N-methylpyrazolo[1,5-a]pyridine-3-carboxamide]
15 | 0.7 | CNC(=O)c1cnn2ccc(-c3ccn4nc(N[C@H]5CC[C@](C)(OC)CC5)nc(OC)c34)cc12 [Compound 405, 5-(4-Methoxy-2-(((1r,4r)-4-methoxy-4-methylcyclohexyl)amino)pyrrolo[2,1-f][1,2,4]triazin-5-yl)-N-methylpyrazolo[1,5-a]pyridine-3-carboxamide]
16 | 2.3 | CNC(=O)c1cnc2ccc(-c3ccn4nc(N[C@H]5CC[C@@H](OC)CC5)nc(OC)c34)cn12 [Compound 439, 6-(4-Methoxy-2-((cis-4-methoxycyclohexyl)amino)pyrrolo[2,1-f][1,2,4]triazin-5-yl)-N-methylimidazo[1,2-a]pyridine-3-carboxamide]
17 | 2.1 | CNC(=O)c1cnc2ccc(-c3ccn4nc(N[C@H]5CC[C@](C)(OC)CC5)nc(OC)c34)cn12 [Compound 445, 6-(4-Methoxy-2-(((1r,4r)-4-methoxy-4-methylcyclohexyl)amino)pyrrolo[2,1-f][1,2,4]triazin-5-yl)-N-methylimidazo[1,2-a]pyridine-3-carboxamide]
18 | 1.4 | CNC(=O)[C@]1(C)C[C@@H](Nc2nc(OC)c3c(-c4ccc5nc(C)n(CC(F)F)c5c4)ccn3n2)C1 [Compound 502, trans-3-((5-(1-(2,2-Difluoroethyl)-2-methyl-1H-benzo[d]imidazol-6-yl)-4-methoxypyrrolo[2,1-f][1,2,4]triazin-2-yl)amino)-N,1-dimethylcyclobutane-1-carboxamide]
19 | 2.3 | COc1nc(N[C@H]2C[C@](C)(C(=O)NC3CC3)C2)nn2ccc(-c3ccc4nc(C)n(CC(F)F)c4c3)c12 [Compound 503, trans-N-Cyclopropyl-3-((5-(1-(2,2-difluoroethyl)-2-methyl-1H-benzo[d]imidazol-6-yl)-4-methoxypyrrolo[2,1-f][1,2,4]triazin-2-yl)amino)-1-methylcyclobutane-1-carboxamide]
20 | 3.8 | COc1nc(N[C@H]2CN(C3COC3)C[C@H]2F)nn2ccc(-c3ccc4nc(C)n(CC(F)F)c4c3)c12 [Compound 505, 5-(1-(2,2-Difluoroethyl)-2-methyl-1H-benzo[d]imidazol-6-yl)-N-((3S,4R)-4-fluoro-1-(oxetan-3-yl)pyrrolidin-3-yl)-4-methoxypyrrolo[2,1-f][1,2,4]triazin-2-amine]
21 | 2.3 | COc1nc(N[C@@H]2CN(C3COC3)C[C@@H]2F)nn2ccc(-c3ccc4nc(C)n(CC(F)F)c4c3)c12 [Compound 506, 5-(1-(2,2-Difluoroethyl)-2-methyl-1H-benzo[d]imidazol-6-yl)-N-((3R,4S)-4-fluoro-1-(oxetan-3-yl)pyrrolidin-3-yl)-4-methoxypyrrolo[2,1-f][1,2,4]triazin-2-amine]
22 | 3.1 | COc1nc(NC2CCC(=O)N(C)C2)nn2ccc(-c3ccc4nc(C)n(CC(F)F)c4c3)c12 (centres unmarked) [Compound 507, 5-((5-(1-(2,2-Difluoroethyl)-2-methyl-1H-benzo[d]imidazol-6-yl)-4-methoxypyrrolo[2,1-f][1,2,4]triazin-2-yl)amino)-1-methylpiperidin-2-one]
23 | 2.4 | COc1nc(N[C@@H]2CCN(CCO)CC2(F)F)nn2ccc(-c3cc(F)c4nc(C)n(CC(F)F)c4c3)c12 [Compound 525, (R)-2-(4-((5-(1-(2,2-Difluoroethyl)-4-fluoro-2-methyl-1H-benzo[d]imidazol-6-yl)-4-methoxypyrrolo[2,1-f][1,2,4]triazin-2-yl)amino)-3,3-difluoropiperidin-1-yl)ethan-1-ol]
24 | 1.6 | COc1nc(N[C@@H]2CCN(C(C)=O)CC2(F)F)nn2ccc(-c3cc(F)c4nc(C)n(CC(F)F)c4c3)c12 [Compound 526, (R)-1-(4-((5-(1-(2,2-Difluoroethyl)-4-fluoro-2-methyl-1H-benzo[d]imidazol-6-yl)-4-methoxypyrrolo[2,1-f][1,2,4]triazin-2-yl)amino)-3,3-difluoropiperidin-1-yl)ethan-1-one]
25 | 1.1 | COc1nc(N[C@H]2CCN(CCO)C[C@H]2F)nn2ccc(-c3cc(F)c4nc(C)n(C(C)C)c4c3)c12 [Compound 542, 2-((3R,4S)-3-Fluoro-4-((5-(4-fluoro-1-isopropyl-2-methyl-1H-benzo[d]imidazol-6-yl)-4-methoxypyrrolo[2,1-f][1,2,4]triazin-2-yl)amino)piperidin-1-yl)ethan-1-ol]
26 | 0.9 | COc1nc(N[C@H]2CCN(C(C)=O)C[C@H]2F)nn2ccc(-c3cc(F)c4nc(C)n(C(C)C)c4c3)c12 [Compound 544, 1-((3R,4S)-3-Fluoro-4-((5-(4-fluoro-1-isopropyl-2-methyl-1H-benzo[d]imidazol-6-yl)-4-methoxypyrrolo[2,1-f][1,2,4]triazin-2-yl)amino)piperidin-1-yl)ethan-1-one]
